Results reported in patent US4474967A, “8-Deutero and 8-tritio-substituted derivatives of D-4S-6-fluoro-spiro-[chroman-4,4'-imidazolidine]-2',5'-dione” (Pfizer Inc., priority 1983, dated 1984).

Test system: aldose reductase
Assay: Inhibition of aldose reductase enzyme activity (S. Hayman et al., as modified by K. Sestanj et al.)
Assay type: biochemical
Conditions: partially purified aldose reductase enzyme from calf lens
Protocol: The following asymmetric spiro-hydantoin compounds of Examples 1 and 2, respectively, were tested at a concentration level of 10^-6 M for their ability to reduce or inhibit aldose reductase enzyme activity via the procedure of S. Hayman et al., as described in the Journal of Biological Chemistry, Vol. 240, p. 877(1965) and as modified by K. Sestanj et al. in U.S. Pat. No. 3,821,383. In each case, the substrate employed was partially purified aldose reductase enzyme obtained from calf lens.

% Inhibition at 10^-6 M [%] | SMILES
74 | O=C1NC(=O)[C@@]2(CCOc3c(F)cc(F)cc32)N1 [Product of Example 1, 4S-6,8-difluoro-spiro-[chroman-4,4'-imidazolidine]-2',5'-dione]
64 | O=C1NC(=O)[C@@]2(CCOc3c(Cl)cc(F)cc32)N1 [Product of Example 2, 4S-6-fluoro-8-chloro-spiro-[chroman-4,4'-imidazolidine]-2',5'-dione]
